Assay results as given in patent US9695155B2, “Herbicidal substituted pyrimidinyloxy benzene compounds” (E. I. DU PONT DE NEMOURS AND COMPANY, priority 2013, dated 2017).

Assays:
soybean = experiment: Test C preemergence; assay type: in vivo, Glycine max; conditions: for Soybean plant response rating: preemergence; for Plant response rating, Soybean: Preemergence, 31 g ai/ha, scale 0 to 100, 0 no effect, 100 complete control
Method in brief: (§1)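 Seeds were sown in loam–sand blend and sprayed preemergence, while plants at 1- to 4-leaf stage (2–18 cm) in peat-based medium received postemergence sprays; test chemicals were formulated in a non-phytotoxic solvent with surfactant. After 13–15 days in a greenhouse, injury was rated visually against controls, 0 (no effect) to 100 (complete control).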

velvetleaf = experiment: Test C postemergence; assay type: in vivo, Abutilon theophrasti; conditions: for Plant response rating, Velvetleaf: scale 0 to 100 (0 no effect, 100 complete control)
Method in brief: as §1

ragweed [1] = experiment: Test C postemergence; assay type: in vivo, Ambrosia elatior; conditions: for Plant response rating, Ragweed: scale 0 to 100 (0 no effect, 100 complete control)
Method in brief: as §1

ragweed [2] = experiment: Test C preemergence; assay type: in vivo, Ambrosia elatior; conditions: for Ragweed plant response rating: preemergence; for Plant response rating, Ragweed: Preemergence, 31 g ai/ha, scale 0 to 100, 0 no effect, 100 complete control
Method in brief: as §1

pigweed [3] = experiment: Test C postemergence; assay type: in vivo, Amaranthus retroflexus; conditions: for Plant response rating, Pigweed: scale 0 to 100 (0 no effect, 100 complete control)
Method in brief: as §1

giant foxtail = experiment: Test C preemergence; assay type: in vivo, Setaria faberii; conditions: for Foxtail, Giant plant response rating: preemergence; for Plant response rating, Foxtail, Giant: Preemergence, 31 g ai/ha, scale 0 to 100, 0 no effect, 100 complete control
Method in brief: as §1

oilseed rape = experiment: Test C postemergence; assay type: in vivo, Brassica napus; conditions: for Plant response rating, Oilseed Rape: scale 0 to 100 (0 no effect, 100 complete control)
Method in brief: as §1

galium = experiment: Test C postemergence; assay type: in vivo, Galium aparine
Method in brief: as §1

pigweed [4] = experiment: Test A preemergence; assay type: in vivo, Amaranthus retroflexus; conditions: for Plant response rating, Pigweed: 125 g ai/ha; for Pigweed plant response rating: 500 g ai/ha
Method in brief: (§2)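 Visual 0–100 rating (100 = complete control) taken about 10 d post-treatment relative to untreated checks. Preemergence: directed soil spray on sown loam/sand pots. Postemergence: seedlings 2–10 cm, 1–2 leaf. Non-phytotoxic solvent formulation with surfactant.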

waterhemp = experiment: Test C preemergence; assay type: in vivo, Amaranthus rudis; conditions: for Waterhemp plant response rating: preemergence; for Plant response rating, Waterhemp: Preemergence, 31 g ai/ha, scale 0 to 100, 0 no effect, 100 complete control
Method in brief: as §1

johnsongrass = experiment: Test C preemergence; assay type: in vivo, Sorghum halepense; conditions: for Johnsongrass plant response rating: preemergence; for Plant response rating, Johnsongrass: Preemergence, 31 g ai/ha, scale 0 to 100, 0 no effect, 100 complete control
Method in brief: as §1

wheat = experiment: Test A postemergence; assay type: in vivo, Triticum aestivum; conditions: 0 to 100 scale where 0 is no effect and 100 is complete control
Method in brief: as §2

corn = experiment: Test A postemergence; assay type: in vivo, Zea mays
Method in brief: as §2

[5] = 16 g ai/ha, scale 0 to 100 (0 no effect, 100 complete control)
[6] = 62 g ai/ha, scale 0 (no effect) to 100 (complete control)
[7] = 125 g ai/ha, scale 0 (no effect) to 100 (complete control)
[8] = Postemergence, 31 g ai/ha, 13 to 15 days
[9] = Postemergence, 62 g ai/ha, scale 0 to 100 (0 no effect, 100 complete control)
[10] = 0 to 100 scale where 0 is no effect and 100 is complete control
[11] = 125 g ai/ha, 0 to 100 scale where 0 is no effect and 100 is complete control
[12] = 16 g ai/ha, postemergence, 0 is no effect, 100 is complete control
[13] = 125 g ai/ha, postemergence, visual rating

Compound: FCc1cccc(Oc2ncc(Cl)cn2)c1-n1cc(Br)cn1 [Compound 83]
- Soybean plant response rating (soybean; [5]): 5
- Soybean plant response rating (soybean; [6]): 60
- Soybean plant response rating (soybean; [7]): 75
- Plant response rating, Soybean (soybean): 10
- Plant response rating (0 to 100), Velvetleaf (velvetleaf; 125 g ai/ha, postemergence): 65
- Plant response rating, Velvetleaf (velvetleaf; [8]): 55
- Plant response rating, Velvetleaf (velvetleaf; Postemergence, 62 g ai/ha): 50
- Plant response rating (0 to 100), Ragweed (ragweed [1]; 125 g ai/ha, postemergence): 70
- Plant response rating, Ragweed (ragweed [1]; [8]): 40
- Plant response rating, Ragweed (ragweed [1]; Postemergence, 62 g ai/ha): 60
- Ragweed plant response rating (ragweed [2]; [5]): 0
- Ragweed plant response rating (ragweed [2]; [6]): 40
- Ragweed plant response rating (ragweed [2]; [7]): 45
- Plant response rating, Ragweed (ragweed [2]): 35
- Plant response rating (0 to 100), Pigweed (pigweed [3]; 125 g ai/ha, postemergence): 85
- Plant response rating, Pigweed (pigweed [3]; [8]): 75
- Plant response rating, Pigweed (pigweed [3]; Postemergence, 62 g ai/ha): 75
- Foxtail, Giant plant response rating (giant foxtail; [5]): 5
- Foxtail, Giant plant response rating (giant foxtail; [6]): 100
- Foxtail, Giant plant response rating (giant foxtail; [7]): 100
- Plant response rating, Foxtail, Giant (giant foxtail): 75
- Plant response rating (0 to 100), Oilseed Rape (oilseed rape; 125 g ai/ha, postemergence): 80
- Plant response rating, Oilseed Rape (oilseed rape; [8]): 50
- Plant response rating, Oilseed Rape (oilseed rape; Postemergence, 62 g ai/ha): 55
- Galium plant response rating (galium; 16 g ai/ha, postemergence, visual rating, scale 0 to 100 (0 no effect, 100 complete control), 13 to 15 days): 50
- Plant response rating (0 to 100), Galium (galium; 125 g ai/ha, postemergence): 60
- Plant response rating, Galium (galium; Postemergence, 31 g ai/ha, scale 0 to 100 (0 no effect, 100 complete control), 13 to 15 days): 65
- Plant response rating, Galium (galium; [9]): 70
- Plant response rating, Pigweed (pigweed [4]; [10]): 100
- Pigweed plant response rating (pigweed [4]; 0 to 100 scale, 0 no effect, 100 complete control, approx. 10 days): 100
- Waterhemp plant response rating (waterhemp; [5]): 75
- Waterhemp plant response rating (waterhemp; [6]): 100
- Waterhemp plant response rating (waterhemp; [7]): 100
- Plant response rating, Waterhemp (waterhemp): 100
- Johnsongrass plant response rating (johnsongrass; [5]): 0
- Johnsongrass plant response rating (johnsongrass; [6]): 50
- Johnsongrass plant response rating (johnsongrass; [7]): 85
- Plant response rating, Johnsongrass (johnsongrass): 0
- Plant response rating, Wheat (wheat; 125 g ai/ha): 0
- Plant response rating, Wheat (wheat; 500 g ai/ha): 60
- Plant response rating, Corn (corn; [11]): 40
- Plant response rating, Corn (corn; 500 g ai/ha, 0 to 100 scale, 0 no effect, 100 complete control): 60

Compound: Clc1cnc(Oc2cccc(Br)c2-n2cc(Br)nn2)nc1 [Compound 129]
- Soybean plant response rating (soybean; [5]): 10
- Soybean plant response rating (soybean; [6]): 40
- Soybean plant response rating (soybean; [7]): 80
- Plant response rating, Soybean (soybean): 10
- Plant response rating (0 to 100), Velvetleaf (velvetleaf; [12]): 15
- Plant response rating, Velvetleaf (velvetleaf; [13]): 40
- Plant response rating, Velvetleaf (velvetleaf; Postemergence, 62 g ai/ha): 40
- Plant response rating (0 to 100), Ragweed (ragweed [1]; [12]): 15
- Plant response rating, Ragweed (ragweed [1]; [13]): 85
- Plant response rating, Ragweed (ragweed [1]; Postemergence, 62 g ai/ha): 40
- Ragweed plant response rating (ragweed [2]; [5]): 0
- Ragweed plant response rating (ragweed [2]; [6]): 60
- Ragweed plant response rating (ragweed [2]; [7]): 85
- Plant response rating, Ragweed (ragweed [2]): 20
- Plant response rating (0 to 100), Pigweed (pigweed [3]; [12]): 70
- Plant response rating, Pigweed (pigweed [3]; [13]): 90
- Plant response rating, Pigweed (pigweed [3]; Postemergence, 62 g ai/ha): 80
- Foxtail, Giant plant response rating (giant foxtail; [5]): 0
- Foxtail, Giant plant response rating (giant foxtail; [6]): 100
- Foxtail, Giant plant response rating (giant foxtail; [7]): 100
- Plant response rating, Foxtail, Giant (giant foxtail): 80
- Plant response rating (0 to 100), Oilseed Rape (oilseed rape; [12]): 5
- Plant response rating, Oilseed Rape (oilseed rape; [13]): 60
- Plant response rating, Oilseed Rape (oilseed rape; Postemergence, 62 g ai/ha): 60
- Plant response rating (0 to 100), Galium (galium; [12]): 50
- Plant response rating, Galium (galium; 125 g ai/ha, postemergence, visual rating, scale 0 to 100 (0 no effect, 100 complete control)): 85
- Plant response rating, Galium (galium; [9]): 55
- Plant response rating, Pigweed (pigweed [4]; [10]): 100
- Pigweed plant response rating (pigweed [4]; [10]): 100
- Waterhemp plant response rating (waterhemp; [5]): 100
- Waterhemp plant response rating (waterhemp; [6]): 100
- Waterhemp plant response rating (waterhemp; [7]): 100
- Plant response rating, Waterhemp (waterhemp): 100
- Johnsongrass plant response rating (johnsongrass; [5]): 0
- Johnsongrass plant response rating (johnsongrass; [6]): 40
- Johnsongrass plant response rating (johnsongrass; [7]): 90
- Plant response rating, Johnsongrass (johnsongrass): 10
- Wheat plant response rating (wheat; 125 g ai/ha): 0
- Plant response rating, Wheat (wheat; 500 g ai/ha): 70
- Corn plant response rating (corn; [11]): 30
- Plant response rating, Corn (corn; 500 g ai/ha, 0 to 100 scale where 0 is no effect and 100 is complete control): 50
